The record followed here is patent US5817669A, “Compounds, processes for the preparation thereof and anti-tumor agents” (Dainippon Pharmaceutical Co., Ltd., priority 1994, dated 1998).

The test system of data set [1] is human cancer cells (KB, MX-1, WiDr, HMV-2, LX-1) implanted in nude mice. Kind of data set: Growth inhibition of human cancer cells implanted in nude mice (Test Examples 5 to 9). Format: in vivo, human cancer cells in BALB/c nude mice. Particulars: 50 mg/kg, FIGS. 1-9 (cell line not stated). Here is the method:
In the following Test examples 5 to 9, human cancer cells were implanted in nude mice, to which test compounds dissolved in an aqueous solution containing NaOH were administered, and, thus, the degree of growth inhibition of cancer cells was observed.
FIGS. 1-9 show the variation with the lapse of days of IR.
FIGS. 10-14 show the relation between tumor weight and the lapse of days in the case where Compound 1--1 was used in Test examples 5-9. Vertical axis corresponds to tumor weight, and horizontal axis corresponds to the days which passed after the start of administration. Tumor weight was estimated from tumor diameter. The term Control in FIGS. 10-14 means tumor weight variation with days in nude mice to which, although cancer cells had been implanted, no test compounds had been administered.
In the following, there is explained schedule of administration of test compounds in nude mice. After days of × in number have passed from implantation of human cancer cells in nude mice, test compounds are intraperitoneally (ip) administered for y days, followed by wash-out periods of days of z in number. Thereafter, test compounds are administered again for y days. In this case, the cycle of administration (y days) and discontinuation (z days) is called "course". Such a schedule is denoted by marks as follows:
[(x) (y) (z) (course) (ip)]
These marks are explained below with an example. […]

The subject of data set [2] is AZ521 human stomach cancer. Kind of data set: In vitro anti-tumor activity against AZ-521 human stomach cancer (MTT). The settings on record: AZ-521, 72 h, MTT, read-out: IC50. Format: cell-based. The method in brief: (§1)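 Read-out is MTT formazan, dissolved in dimethyl sulfoxide after a 4-hour MTT (5 mg/ml) incubation. Before that, seeded cells (500 to 2,000 per well) grew 20 hours at 37° C and then received compound for 72 hours.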

Data set [3] relates to murine P388 lymphocytic leukemia cells. Kind of data set: In vitro anti-tumor activity against murine P388 lymphocytic leukemia cells (MTT, 72 h). Format: cell-based. The settings on record: Mus musculus; murine P388 cells, 72 h, MTT; read-out: IC50 (50% proliferation inhibitory concentration). The gist of the method: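 MTT assay, 72 h exposure; formazan dissolved in DMSO after centrifugation and supernatant removal. Absorbance read at 570 nm with 690 nm reference. IC50 (μg/ml) by least squares.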

Data set [4] has as its system WiDr human colorectal cancer. Kind of data set: In vitro anti-tumor activity against WiDr human colorectal cancer (MTT). Format: cell-based. The settings on record: 72 h, MTT, read-out: IC50. The gist of the method:
as §1

The test system of data set [5] is C33A human cervix cancer. Kind of data set: In vitro anti-tumor activity against C-33A human cervix cancer (MTT). Particulars: C-33A, 72 h, MTT, read-out: IC50. Format: cell-based. The method in brief:
as §1

In data set [6] the test system is HMV2 human melanoma. Description: In vitro anti-tumor activity against HMV-2 human melanoma (MTT). Format: cell-based. The settings on record: HMV-2, 72 h, MTT, read-out: IC50. The gist of the method:
as §1

Data set [7] in a line: physchem.
The subject of data set [8] is KB human nasopharynx cancer. Description: In vitro anti-tumor activity against KB human nasopharynx cancer (MTT). Format: cell-based. The settings on record: KB, 72 h, MTT, read-out: IC50. The gist of the method: as §1

Molecules are shown by their SMILES.

Usually solubility stands for the concentration that dissolves in the medium under given conditions. In the case of `CN[C@@H]1CN(c2ccc3c(=O)c(C(=O)O)cn(-c4nccs4)c3n2)C[C@H]1OC.Cl` (relative stereo) [Compound 1-1, 1,4-dihydro-7-(trans-3-methoxy-4-methylamino-1-pyrrolidinyl)-4-oxo-1-(2-thiazolyl)-1,8-naphthyridine-3-carboxylic acid hydrochloride], the “Tumor Growth Inhibition Rate IR % on the last day of observation” value in data set [1] was found to be 91%. For the same molecule, the IC50 was 0.0561 µg/mL in data set [2]; 0.0107 µg/mL in data set [3]; 0.379 µg/mL in data set [4]; 0.137 µg/mL in data set [5]; 0.131 µg/mL in data set [6]; 0.11 µg/mL in data set [8]. Further, the solubility came to 20.1 mg/mL in data set [7] (0.1 m phosphate buffer, pH 7.2, aqueous buffer) and 2.9 mg/mL in data set [7] (water).
